Experimental data as given in US10782295B2, “Cysteine-reactive ligand discovery in proteomes” (THE SCRIPPS RESEARCH INSTITUTE, priority 2013, dated 2020).

What was measured:
EEF2 = biological target: T1, EEF2 (Homo sapiens, UniProt P13639); assay: competitive isoTOP-ABPP, MDA-MB-231 soluble proteome; type: binding; conditions: 100 μM LDE, 60 min; peptide STLTDSLVC*K
T1 construct: directly in native proteomes; endogenous in cells; host or cells: MDA-MB-231
Procedure: (§1) Here, we envisioned that isoTOP-ABPP could be advanced to discover and quantify reactions between cysteines in proteomes and any electrophilic compound. In this advanced, ‘competitive’ version of isoTOP-ABPP (FIG. 1a), a proteome is treated with an electrophile (experimental sample) or DMSO (control sample). Both proteomic samples are then labeled with the IA probe and conjugated by CuAAC to light and heavy azide-biotin tags, respectively. The light and heavy samples are then mixed and subjected to our described isoTOP-ABPP protocol for enrichment, identification, and quantification of IA-labeled cysteines^30. Electrophile-modified cysteines are quantified by measuring the MS1 chromatographic peak ratios (R values) for heavy (DMSO-treated) over light (electrophile-treated) samples, with higher R values reflecting greater sensitivity to the electrophile. In this format, competitive isoTOP-ABPP can assay electrophiles against 1000+ cysteines in parallel directly in native proteomes without requiring any chemical modification to the electrophiles themselves.
(§2) Competitive isoTOP-ABPP experiments were performed in quadruplicate using the soluble proteome of the human breast cancer cell line MDA-MB-231 cell line. Proteomes were treated with 100 μM HNE, 15d-PGJ2, or 2-HD, for 60 minutes, followed by the IA-probe (100 μM, 60 min) A total of ˜1400 cysteine reactivities were quantified across the aggregate data set, with at least 900 cysteine reactivities quantified for each LDE (FIG. 2a) more than 750 of which were quantified for all the three electrophiles.
(§3) The MDA-MB-231 cell proteome was treated with varying concentrations of HNE (5, 10, 50, 100 and 500 μM) for 60 min and then the IA-labeling profile of each reaction was quantitatively compared to a DMSO-control sample by isoTOP-ABPP.
(§4) HNE was purchased from EMD biosciences, 15d-PGJ2 was purchased from Cayman Chemicals and 2-HD was purchased from Santa Cruz Biotechnology. Proteome samples were diluted to a 4 mg protein/mL solution in PBS. For each profiling experiment, one aliquot of the proteome sample (0.5 mL) was treated with 100 μM of LDE using 5 μL of a 10 mM stock and the other aliquot was treated with 5 μL of either ethanol (for HNE and 15d-PGJ2) or DMSO (for 2-HD) as control. For the concentration-dependent profiling experiments using HNE, aliquots of the proteomes (0.5 mL each) were treated with 5, 10, 50, 100 and 500 μM of HNE using 5 μL of 0.5, 1.0, 5, 10 and 50 mM of stock solution, respectively. After 60 minutes of treatment at room temperature, both the LDE-treated and control aliquots were passed through a NAP-5 Sephadex column (GE healthcare) to remove any unreacted LDE. The volume of each aliquot was increased to 1 mL with the concentration at 2 mg/mL after this step.
(§5) Each of the control and LDE-treated proteome samples (˜2 mg protein/mL in 1 mL volume) was treated with 100 μM of IA-probe using 10 μL of a 10 mM stock in DMSO. The labeling reactions were incubated at room temperature for 1 hour. Click chemistry (acetylene-azide cycloaddition) was performed by the addition of 100 μM of either the Heavy-TEV-Tag (for the control sample) or Light-TEV-Tag (for the LDE-treated sample) (20 μL of a 5 mM stock), 1 mM TCEP (fresh 50× stock in water), 100 μM ligand (17× stock in DMSO:t-Butanol 1:4) and 1 mM CuSO4 (50× stock in water). Samples were allowed to react at room temperature for 1 hour. After the click chemistry step, the light and heavy-labeled samples were mixed together and centrifuged (5900×g, 4 min, 4° C.) to pellet the precipitated proteins.
(§6) The pellets were washed twice in cold MeOH, after which the pellet was solubilized in PBS containing 1.2% SDS via sonication and heating (5 min, 80° C.). Samples were subjected to streptavidin enrichment of probe-labeled proteins, sequential on-bead trypsin and TEV digestion, and liquid chromatography-mass spectrometry (LC-MS) analysis according to the published isoTOP-ABPP protocol^30. […]

RTN4 = biological target: T2, RTN4 (Homo sapiens, UniProt Q9NQC3); assay: as above; type: binding; conditions: 100 μM LDE, 60 min; peptide YSNSALGHVNC*TIK
T2 construct: directly in native proteomes; endogenous in cells; host or cells: MDA-MB-231
T2 sequence (Q9NQC3 1-1192): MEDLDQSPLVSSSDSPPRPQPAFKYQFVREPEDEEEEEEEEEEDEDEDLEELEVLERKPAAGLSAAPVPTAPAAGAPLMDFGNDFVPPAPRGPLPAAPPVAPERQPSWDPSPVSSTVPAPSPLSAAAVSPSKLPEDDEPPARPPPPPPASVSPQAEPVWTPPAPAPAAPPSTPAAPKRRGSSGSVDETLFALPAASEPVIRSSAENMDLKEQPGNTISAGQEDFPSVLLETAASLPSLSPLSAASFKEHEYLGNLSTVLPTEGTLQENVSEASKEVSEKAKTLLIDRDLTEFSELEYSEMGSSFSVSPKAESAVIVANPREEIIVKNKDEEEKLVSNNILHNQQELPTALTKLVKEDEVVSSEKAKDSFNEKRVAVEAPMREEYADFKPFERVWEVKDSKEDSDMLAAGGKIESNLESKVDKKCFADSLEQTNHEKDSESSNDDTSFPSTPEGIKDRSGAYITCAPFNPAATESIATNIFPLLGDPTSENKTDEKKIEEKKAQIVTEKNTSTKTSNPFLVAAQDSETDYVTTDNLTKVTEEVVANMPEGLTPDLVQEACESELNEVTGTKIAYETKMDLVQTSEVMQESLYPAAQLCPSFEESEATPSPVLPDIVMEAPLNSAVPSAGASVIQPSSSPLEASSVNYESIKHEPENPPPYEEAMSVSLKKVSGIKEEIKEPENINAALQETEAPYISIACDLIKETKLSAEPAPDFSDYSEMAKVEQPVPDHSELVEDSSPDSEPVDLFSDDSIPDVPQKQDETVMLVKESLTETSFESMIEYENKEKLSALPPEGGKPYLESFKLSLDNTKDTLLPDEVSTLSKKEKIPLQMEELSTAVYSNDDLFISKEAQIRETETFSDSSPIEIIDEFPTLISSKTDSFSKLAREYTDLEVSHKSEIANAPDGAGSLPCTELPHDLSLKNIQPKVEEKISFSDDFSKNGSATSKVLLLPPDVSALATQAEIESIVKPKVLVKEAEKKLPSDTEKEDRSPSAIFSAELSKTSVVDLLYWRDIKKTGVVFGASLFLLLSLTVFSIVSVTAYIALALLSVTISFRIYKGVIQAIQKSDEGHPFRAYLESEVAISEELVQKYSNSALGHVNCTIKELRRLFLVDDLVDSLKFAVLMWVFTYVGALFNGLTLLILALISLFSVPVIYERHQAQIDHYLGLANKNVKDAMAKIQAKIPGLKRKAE
Procedure: as §1, §2, §3, §4, §5, §6

Compound | R value (isoTOP-ABPP ratio heavy/light) for IA-labeled cysteine of EEF2 (EEF2) | R value (isoTOP-ABPP ratio heavy/light) for IA-labeled cysteine of RTN4 (RTN4)
CCCCCCCCCCCCC/C=C/C=O [2-HD, 2-trans-hexadecenal] | 1.06 | 1.1
CCCCCC(O)/C=C/C=O (stereo not drawn) [4-HNE, 4-Hydroxynonenal] | 11.63 | 11.78
CCCCC/C=C/C=C1/C(=O)C=C[C@@H]1C/C=C\CCCC(=O)O [PGJ2, 15-deoxy-Δ12,14-prostaglandin J2] | 3.31 | 2.93
